Publication PMC7032632 (Experimental eye research, 2019)
Ends that are not written are not given here.

Key:
[1] = test system: choroidal neovascularization (CNV); settings: mouse, day 0 IVT injection; ref Wang et al., 2012; cited from earlier work
[2] = test system: VEGF-activated endothelial cells (primary human dermal microvascular EC); type: cell-based; settings: 48 h
[3] = test system: cells presenting 67LR; settings: ref Gopalakrishna et al., 2018; Yu et al., 2009; cited from earlier work

| EC50 [2] [nM] | Substance | further results |
| --- | --- | --- |
| – | Ac-GV-d-alloIle-Ser-Q-I-R-Pro-ethylamide [ABT-898] | laser-induced CNV, IVT injection [1]: mitigate laser-induced CNV |
| 30 | Ac-GYDLYRV-NH2 [PEDF 862] | – |
| 60 | Ac-GYDLYRVRS-NH2 [PEDF 860] | – |
| 10 | NFGYDLYRVRSSMSPTTN [PEDF P18] | – |
| – | YIGSR | activity range in cells presenting 67LR [3]: 2 to 20 µM |
